From article PMC10216581, “Homogeneous, Synthetic, Non-Saccharide Glycosaminoglycan Mimetics as Potent Inhibitors of Human Cathepsin G” (Biomolecules, 2023)
Values joined by “and” are separate entries in the source; they are usually repeats but may differ in a detail not shown here. Equal values may be shown once. “Also recorded” adds a separate entry of the source. Read-outs that look alike come from different tables or passages of the source.

What was measured:
Human CatG [1] = biological target: T1, Human CatG (Homo sapiens, UniProt P08311); assay: Direct inhibition of CatG, chromogenic substrate (S-7388) hydrolysis assay, IC50 determination; type: biochemical; conditions: 100 mM NaCl
T1 construct: purchased Elastin Products Company (Owensville, MO, USA)
T1 sequence (P08311 21-255): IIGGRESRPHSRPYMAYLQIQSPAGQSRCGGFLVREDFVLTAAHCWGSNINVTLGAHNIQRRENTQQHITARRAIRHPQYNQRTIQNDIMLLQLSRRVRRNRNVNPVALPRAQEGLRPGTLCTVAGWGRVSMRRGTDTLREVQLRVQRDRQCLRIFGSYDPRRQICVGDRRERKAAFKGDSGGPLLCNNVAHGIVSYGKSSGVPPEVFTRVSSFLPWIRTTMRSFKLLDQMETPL
Procedure: A chromogenic substrate hydrolysis assay was used to determine the direct inhibition of CatG by the NSGMs, as previously reported. To each well of a 96-well microplate containing 88 µL of 20 mM tris buffer, containing 100 mM NaCl, 2.5 mM CaCl2, 0.1% PEG 8000, and 0.05% Tween 80, 4 µL of CatG (final concentration of 60 nM) and 5 µL of H2O or NSGM (final concentration of 0–100 µM) were added. After incubating for a period of 5 min, 3 µL of CatG substrate (S-7388, final concentration of 750 µM) was added, and the residual CatG activity was obtained from the initial rate of increase of absorbance at 405 nm. The relative residual activity of CatG for each of the NSGMs, at the various concentrations, was calculated from the ratio of CatG activity in the presence and absence of NSGMs. The dose dependence curve was plotted using a logistic equation (see below) in Sigmaplot version 12 to obtain the IC50 (potency), Hill slope (HS), and efficacy (ΔY). Here, Y is the ratio of residual CatG activity in the presence of NSGMs to that in their absence, YO and YM are the minimum and maximum values of fractional residual CatG activity, respectively, IC50 is the concentration of the NSGM that inhibits CatG activity by 50%, and HS is the Hill slope. ΔY = YM − YO. Y=YO+YM−YO/1+10^logI0−logIC50HS
Figure 4 Representative IC50 profiles for CatG inhibition by NSGMs. Direct inhibition of human CatG was measured using the chromogenic substrate hydrolysis assay at pH 7.4 and 37 °C. Solid lines represent analysis using the logistic dose–response relationship (Equation (1)) to obtain the IC50, ΔY%, and HS. Errors represent ± 1 S.E.

Human CatG [2] = biological target: T1, Human CatG; assay: Michaelis-Menten kinetics of CatG hydrolysis of chromogenic substrate S-7388 in the presence of NSGM 25; type: biochemical
Procedure: […] The data were analyzed using the standard Michaelis–Menten equation in Sigmaplot version 12 to determine the KM and VMAX.
Figure 5 Kinetics of inhibition of 60 nM CatG by NSGM 25. Michaelis–Menten kinetics of CatG hydrolysis of chromogenic substrate (S-7388) in the presence of NSGM 25. Experiments were performed at 37 °C in 20 mM tris buffer, pH 7.4. Solid lines represent nonlinear regression analysis of the data using the standard Michaelis-Menten to calculate KM and VMAX.

human plasma = assay: Prothrombin time (PT) clotting assay; type: biochemical
Procedure: The impacts of NSGM 25 on activated partial thromboplastin time (aPTT) and the prothrombin time (PT) of human plasma were measured employing a standard one-stage recalcification assay at 37 °C, as previously reported. CaCl2 and thromboplastin-D were used to initiate clotting in aPTT and PT assays, respectively, in the absence and presence of NSGM 25, and the time to clot was recorded accordingly.

factor IXa = test system: factor IXa; design: method as in PMID 9790687; conditions: previous study; read-out: inhibitory potency; cited from earlier work
human plasmin = test system: human plasmin; design: method as in PMID 9790687; conditions: previous studies; cited from earlier work
factor XIa = test system: factor XIa; design: method as in PMID 9790687; conditions: previous study; read-out: inhibitory potency; cited from earlier work
[3] = 50 nM NSGM 25, substrate S-7388, pH 7.4, 37 °C

- IC50 (Human CatG [1]; pH 7.4, read-out: IC50 (potency)): ~50 nM and 53 nM
- HS (Hill slope) (Human CatG [1]; Hill slope of dose-response fit, pH 7.4): 0.7 ± 0.1
- IC50 (Human CatG [1]; pH 7.4 tris buffer, 37 °C, 60 nM CatG, 750 µM S-7388, ± 1 S.E., read-out: IC50): 50 ± 10 nM
- ΔY (efficacy) (Human CatG [1]; ΔY = YM − YO of dose-response fit, pH 7.4): 95 ± 7%
- Km (Human CatG [2]; [3]): 2180 ± 270 µM
- VMAX (Human CatG [2]; [3]): 52.9 ± 4.1 mAu/min
- Km (Human CatG [2]; 100 nM NSGM 25): 1310 ± 60 µM
- VMAX (Human CatG [2]; 100 nM NSGM 25): 31.0 ± 0.8 mAu/min
- Km (Human CatG [2]; 150 nM NSGM 25): 870 ± 200 µM
- VMAX (Human CatG [2]; 150 nM NSGM 25): 21.1 ± 2.1 mAu/min
- Km (Human CatG [2]; 200 nM NSGM 25): 800 ± 110 µM
- VMAX (Human CatG [2]; 200 nM NSGM 25): 17.0 ± 1.0 mAu/min
- Km (Human CatG [2]; 400 nM NSGM 25): 770 ± 300 µM
- VMAX (Human CatG [2]; 400 nM NSGM 25): 12 ± 2 mAu/min and 12.4 ± 2.1 mAu/min
- mechanism of CatG inhibition (Human CatG [2]; from simultaneous reduction in KM and VMAX): uncompetitive
Compound: O=c1c(OS(=O)(=O)O)c(-c2ccc(OS(=O)(=O)O)c(OS(=O)(=O)O)c2)oc2cc(OS(=O)(=O)O)cc(OCc3ccc(COc4cc(OS(=O)(=O)O)cc5oc(-c6ccc(OS(=O)(=O)O)c(OS(=O)(=O)O)c6)c(OS(=O)(=O)O)c(=O)c45)cc3)c12 [NSGM 25]
- PT (EC2X) (human plasma; concentration required to double the PT of pooled human plasma): >1000 µM
- effect on PT clotting time (human plasma; human plasma, concentration as high as 1 mM): did not impact; also recorded: did not extend
- IC50 (factor IXa): > 150000 nM
- IC50 (human plasmin): ~6300 nM
- IC50 (factor XIa): > 150000 nM
